Laboratory results published in the NIST ThermoML archive (doi:10.1016/j.jct.2010.11.005).
Several values for one entry are separate records, joined by “and”; a condition that tells them apart may be missing. Equal values may be shown once. Numbers after ± are expanded uncertainties.

How the values were obtained:
[1] = molar enthalpy of vaporization or sublimation; conditions: 298.15 K; Crystal; Calvet microcalorimetry
[2] = Crystal, Calculated from knudsen effusion weight loss

Row | molar enthalpy [1] [kcal/mol] | SMILES | vapor or sublimation pressure ([2]; 359.27 K) | vapor or sublimation pressure ([2]; 361.19 K) | vapor or sublimation pressure ([2]; 363.12 K) | vapor or sublimation pressure ([2]; 365.29 K) | vapor or sublimation pressure ([2]; 367.2 K) | vapor or sublimation pressure ([2]; 369.12 K) | vapor or sublimation pressure ([2]; 371.29 K) | vapor or sublimation pressure ([2]; 373.18 K) | vapor or sublimation pressure ([2]; 375.1 K) | vapor or sublimation pressure ([2]; 349.27 K) | vapor or sublimation pressure ([2]; 351.21 K) | vapor or sublimation pressure ([2]; 353.12 K) | vapor or sublimation pressure ([2]; 355.13 K) | vapor or sublimation pressure ([2]; 357.21 K) | vapor or sublimation pressure ([2]; 359.26 K) | vapor or sublimation pressure ([2]; 361.26 K) | vapor or sublimation pressure ([2]; 363.2 K) | vapor or sublimation pressure ([2]; 365.12 K)
1 | 29.2 ± 1.29 | O=C(c1ccccc1)c1ccc([N+](=O)[O-])cc1 [4-nitrobenzophenone] | 0.00018 ± 9e-06 kPa and 0.000177 ± 9e-06 kPa and 0.000174 ± 9e-06 kPa | 0.000215 ± 1.1e-05 kPa and 0.00021 ± 1.1e-05 kPa and 0.000214 ± 1.1e-05 kPa | 0.000269 ± 1.3e-05 kPa and 0.000265 ± 1.3e-05 kPa and 0.000259 ± 1.3e-05 kPa | 0.000344 ± 1.7e-05 kPa and 0.000342 ± 1.7e-05 kPa | 0.000422 ± 2.1e-05 kPa and 0.00042 ± 2.1e-05 kPa and 0.000427 ± 2.1e-05 kPa | 0.000512 ± 2.6e-05 kPa and 0.000509 ± 2.5e-05 kPa and 0.000523 ± 2.6e-05 kPa | 0.000652 ± 3.3e-05 kPa and 0.000645 ± 3.2e-05 kPa and 0.000657 ± 3.3e-05 kPa | 0.000767 ± 3.8e-05 kPa and 0.000769 ± 3.8e-05 kPa and 0.000791 ± 4e-05 kPa | 0.000955 ± 4.8e-05 kPa and 0.000941 ± 4.7e-05 kPa and 0.00096 ± 4.8e-05 kPa |  |  |  |  |  |  |  |  | 
2 | 29.5 ± 1.15 | O=C(c1ccccc1)c1cccc([N+](=O)[O-])c1 [3-nitrobenzophenone] |  |  |  |  |  |  |  |  |  | 0.00016 ± 8e-06 kPa and 0.000161 ± 8e-06 kPa and 0.000162 ± 8e-06 kPa | 0.000194 ± 1e-05 kPa and 0.000198 ± 1e-05 kPa | 0.000248 ± 1.2e-05 kPa and 0.000245 ± 1.2e-05 kPa and 0.000244 ± 1.2e-05 kPa | 0.000315 ± 1.6e-05 kPa and 0.000308 ± 1.5e-05 kPa | 0.000399 ± 2e-05 kPa and 0.000396 ± 2e-05 kPa and 0.000395 ± 2e-05 kPa | 0.000506 ± 2.5e-05 kPa and 0.000508 ± 2.5e-05 kPa | 0.000613 ± 3.1e-05 kPa and 0.00061 ± 3.1e-05 kPa and 0.000614 ± 3.1e-05 kPa | 0.000758 ± 3.8e-05 kPa and 0.000749 ± 3.8e-05 kPa and 0.000771 ± 3.9e-05 kPa | 0.000936 ± 4.7e-05 kPa and 0.000935 ± 4.7e-05 kPa and 0.000946 ± 4.7e-05 kPa
3 | 35.2 ± 1.86 | O=C(c1cccc([N+](=O)[O-])c1)c1cccc([N+](=O)[O-])c1 [3,3'-dinitrobenzophenone] |  |  |  |  |  |  |  |  |  |  |  |  |  |  |  |  |  | 
